Series [1] in a line: Human liver microsome intrinsic clearance. As to conditions: apparent intrinsic clearance, scaled. It is filed as in vitro ADME.
For series [2], the target named is CYP-2C9 (Homo sapiens, UniProt P11712). The series can be described thus: CYP inhibition, 2C9. It is filed as in vitro ADME. The conditions noted are these: most potently inhibited isoform was CYP-2C9. An excerpt:
Table 3 New Combinations from Free–Wilson Analysis | column: CYP IC50/μM ^c

Series [3] can be described thus: Rat PK (iv and po). The format is in vivo. The text has this: This was an early indication that the strategy of increasing potency while lowering lipophilicity would allow us to meet our goal of improving prospects for favorable PK and dose.

Sequence of CYP-2C9 (P11712 whole entry, canonical isoform): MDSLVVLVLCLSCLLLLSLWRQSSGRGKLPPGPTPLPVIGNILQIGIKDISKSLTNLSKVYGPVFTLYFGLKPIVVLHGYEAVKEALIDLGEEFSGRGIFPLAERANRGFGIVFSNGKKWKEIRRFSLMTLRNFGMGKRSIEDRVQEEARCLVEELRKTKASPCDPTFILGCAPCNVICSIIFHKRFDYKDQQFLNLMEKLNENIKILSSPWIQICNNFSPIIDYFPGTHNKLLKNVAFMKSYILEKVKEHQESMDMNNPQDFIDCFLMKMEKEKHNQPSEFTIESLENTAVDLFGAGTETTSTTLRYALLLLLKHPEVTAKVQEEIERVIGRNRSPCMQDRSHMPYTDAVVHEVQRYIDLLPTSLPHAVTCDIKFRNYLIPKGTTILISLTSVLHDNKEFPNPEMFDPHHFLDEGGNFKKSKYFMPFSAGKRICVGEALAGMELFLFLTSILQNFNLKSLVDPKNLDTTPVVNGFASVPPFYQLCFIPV

Consider `Cc1ccc(-c2ncc3c(n2)N2CCOC[C@@]2(C)C(=O)N3[C@H]2CC[C@H](O)CC2)c2cc[nH]c12` [15a], for which the “HLM Clint” value in series [1] was 6 mL min^–1 kg^–1. Also, the IC50 in series [2] was determined as 5 µM. Also, in series [3] (estimated from %F, Cl and Qh = 70 mL min^–1 kg^–1), the frac. abs. is on record as 41%. This molecule gave a bioavailability in series [3] (in vivo, 4 mg/kg, iv 1 mpk, po 4 mpk in 0.5% methylcellulose) of 35%. For the same molecule, in series [3] (iv 1 mpk), the Cl was determined as 10 mL min^–1 kg^–1 and the Vd turned out to be 1.6 L/kg. This molecule also registered a Cmax in series [3] (po 4 mpk in 0.5% methylcellulose) of 570 nM.
